Values joined by “and” are separate entries in the source; they are usually repeats but may differ in a detail not shown here. Identical values can stand only once. Like-named read-outs stand apart in the source and are kept apart here.
Experiments:
tauP301L = tauP301L (Homo sapiens, UniProt P10636, P618L); test: WB degradation of tauP301L in SH-SY5Y-tauP301L cells; format: cell-based; details: for Tau normalized to GAPDH and control, AVG %: average of N=3
In short: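 Lysates in SDS/LDS or Laemmli sample buffer were separated by SDS-PAGE and blotted to PVDF. Target protein was detected with primary antibodies, HRP secondary and ECL on X-ray film, and degradation quantified by band densitometry.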

[1] = system: tauP301L inclusion bodies; test: ICC of TauP301L-GFP autophagic targeting in HeLa cells; format: cell-based; details: Fig. 5k, compound +HCQ; for TauP301L-GFP / LC3 colocalization, cells counted per 50 cells (individual replicates): count out of 50 cells
Description: Fig. 5 Selective degradation of pathological aggregation-prone tau species by aggregate-binding AUTOTAC. a–c WB in SH-SY5Y-tauP301L cells treated with PBA-1105, PBA, or YTK-1105 at the indicated concentrations. d Densitometry of (a, b, and c) (n = 3 biologically independent experiments). e–g Same as (a–c) but with Anle138b-F105, Anle138b, or YTK-105. (h) Densitometry of (e, f, and g) (n = 3 biologically independent experiments). i WB in SH-SY5Y-tauP301L cells treated with PBA-1105 (0.1 μM) at the indicated time points. j ICC of HeLa cells expressing recombinant TauP301L-GFP and treated with the indicated compounds (1 μM, 24 h) and HCQ (10 μM, 24 h). Scale bar, 10 μm. k Quantification of (j) (n = 3 biologically independent experiments each counting 50 cells). l In vivo oligomerization assay in SH-SY5Y-tauP301L cells treated with okadaic acid (15 nM, 24 h) and the indicated compounds (0.1 μM, 24 h). m Triton X-100-fractionation assay in SH-SY5Y-tauP301L cells treated with a combination of HCQ (10 μM, 24 h), okadaic acid (15 nM, 24 h) or PBA-1105 (0.1 μM, 24 h). Data are presented as mean values ± SD where relevant. P-values (from a two-sided unpaired t test): **P < 0.00821. Source data are provided with this paper.
Cells were cultured on coverslips coated with poly-L-lysine (Sigma) to observe cellular localization of proteins. Using 4% paraformaldehyde in PBS (pH 7.4), the cells were fixed for 15 min at room temperature and washed three times for 5 min with PBS. After fixing, the cells were permeabilized with 0.5% Triton X-100 in PBS solution for 15 min and washed three times with PBS for 5 min. The cells were blocked containing 2% BSA in PBS solution for 1 h at room temperature. Subsequently, the cells were incubated with primary antibody diluted in 2% BSA/PBS solution overnight at 4 °C, followed by washing the cells three times for 10 min with PBS and incubated with Alexa Fluor-conjugated secondary antibody diluted in 2% BSA/PBS for 30 min at room temperature. Using a DAPI-containing mounting medium (Vector Laboratories), the coverslips were mounted on glass slides. Confocal images were taken by laser scanning confocal microscope 510 Meta (Zeiss) and analyzed by Zeiss LSM Image Browser (ver. 4.2.0.121). […] Quantification results are shown as mean ± S.D. or S.E.M. of three independent experiments

p62 = biological target: T1, p62 (Homo sapiens, UniProt Q13501); test: In vitro p62 oligomerization assay; format: biochemical; details: HEK293T lysate
T1 construct: expressed in transfected cells; host or cells: HEK293T, transient; whole lysate used
Description: HEK293T cells were transiently transfected with a plasmid encoding p62-myc/his fusion proteins. Cells were resuspended in lysis buffer [50 mM HEPES (pH 7.4), 0.15 M KCl, 0.1% Nonidet P-40), 10% glycerol, containing a mixture of protease inhibitors and phosphatase inhibitor (Abcam)]. To lyse the cells, 10 cycles of freezing and thawing was done, followed by centrifugation at 13,000 × g for 20 min at 4 °C. Using a BCA assay, the protein concentration of the supernatant was measured. A total of 1 μg of protein was incubated with 1 mM of p62-ZZ ligands in the presence of 100 μM bestatin (Enzo) at room temperature for 2 h. After incubation, each sample was mixed with non-reducing 4X LDS sample buffer, heated at 95 °C for 10 min, and resolved using 4–20% gradient SDS-PAGE (Bio-Rad). To monitor the conversion of p62 monomers into oligomers or aggregates, IB assay was performed using anti-myc antibody.

Ub-conjugated aggregates = test: WB autophagic flux of Ub-conjugated aggregates in HEK293T cells under proteasomal inhibition; format: cell-based
Description: Fig. 4 Targeted autophagic delivery and degradation of misfolded protein cargoes using AUTOTACs with aggregate-binding warhead. a A model illustrating the mode of action of aggregate-targeting AUTOTAC. b Chemical structures of PBA-1105, PBA-1106, Anle138b-F105 and PBA-1105b. c In vitro p62 oligomerization assay in HEK293T cells incubated with the indicated compounds in (b). d WB in HEK293T cells treated with MG132 (1 μM, 24 h), HCQ (10 μM, 24 h), PBA-1105, YTK-1105, and PBA (1 μM, 24 h). e Identical to (d), but with Anle-F105. f ICC of HeLa cells treated with HCQ (10 μM, 24 h), MG132 (2 μM, 18 h) or both in the presence of PBA-1106, YOK-1106 or PBA (1 μM, 24 h). Scale bar, 10 μm. g Quantification of (f) (n = 3, 50 cells). h ICC of HeLa cells treated with Anle138b-F105 (1 μM, 24 h). Scale bar, 10 μm. i Quantification of (h) (n = 3, 50 cells). When indicated, n = 3 biologically independent experiments each counting 50 cells. Data are presented as mean values ± SD where relevant. P-values (from a two-sided unpaired t test): ***P < 7.66E−05. Source data are provided with this paper.
Adherent cells were washed with phosphate-buffered saline (PBS) and cell pellets were lysed in SDS-based sample buffer (277.8 mM Tris-HCI, pH 6.8, 4.4% LDS, 44.4% (v/v) glycerol) containing beta-mercaptoethanol. […] Densitometry of developed bands was measured and analyzed with ImageJ (NIH, Bethesda).

[2] = system: endogenous wild-type murine tau; details: for AVG (%) Insoluble mTau / AVG (%) Soluble mTau: control 100
[3] = densitometry, dosage degradation, SH-SY5Y-Tau-TiFC, 1 nM
[4] = densitometry, dosage degradation, SH-SY5Y-Tau-TiFC, 1 nM, read-out: (Tau normalized to GAPDH) normalized to control, percentage (individual replicates N=1, N=2, N=3)
[5] = densitometry, dosage degradation, SH-SY5Y-Tau-TiFC, 10 nM
[6] = densitometry, dosage degradation, SH-SY5Y-Tau-TiFC, 100 nM
[7] = densitometry, dosage degradation, SH-SY5Y-Tau-TiFC, 1 uM
[8] = densitometry, dosage degradation, SH-SY5Y-Tau-TiFC, 10uM

Sequence of tauP301L (P10636 1-441 isoform P10636-8 P301L): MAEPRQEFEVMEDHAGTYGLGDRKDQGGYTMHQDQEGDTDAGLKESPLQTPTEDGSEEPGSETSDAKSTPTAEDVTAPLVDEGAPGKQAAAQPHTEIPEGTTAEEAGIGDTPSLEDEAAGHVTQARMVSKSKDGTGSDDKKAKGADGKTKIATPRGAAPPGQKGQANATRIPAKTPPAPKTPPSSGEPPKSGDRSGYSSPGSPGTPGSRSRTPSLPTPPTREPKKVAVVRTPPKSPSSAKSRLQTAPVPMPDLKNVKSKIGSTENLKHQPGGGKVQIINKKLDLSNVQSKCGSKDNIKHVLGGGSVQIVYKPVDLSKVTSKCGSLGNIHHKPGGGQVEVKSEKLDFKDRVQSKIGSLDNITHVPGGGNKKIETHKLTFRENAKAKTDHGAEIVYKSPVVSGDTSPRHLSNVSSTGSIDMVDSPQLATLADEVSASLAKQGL
T1 sequence (Q13501 whole entry): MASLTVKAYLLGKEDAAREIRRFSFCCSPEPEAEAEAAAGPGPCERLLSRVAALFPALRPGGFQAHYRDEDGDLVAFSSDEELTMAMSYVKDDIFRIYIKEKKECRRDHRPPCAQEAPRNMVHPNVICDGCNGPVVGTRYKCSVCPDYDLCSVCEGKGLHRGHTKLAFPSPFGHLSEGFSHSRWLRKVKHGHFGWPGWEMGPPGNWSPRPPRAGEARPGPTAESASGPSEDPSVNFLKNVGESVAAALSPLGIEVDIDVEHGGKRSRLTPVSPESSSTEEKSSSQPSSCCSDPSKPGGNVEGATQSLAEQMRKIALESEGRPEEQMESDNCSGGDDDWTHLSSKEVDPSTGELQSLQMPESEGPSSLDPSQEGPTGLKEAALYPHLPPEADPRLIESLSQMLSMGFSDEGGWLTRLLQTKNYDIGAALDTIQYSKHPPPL

SMILES	Tau normalized to GAPDH and control, AVG % (tauP301L; [3])	remaining activity at 0.001 µM (tauP301L; [4])	Tau normalized to GAPDH and control, AVG % (tauP301L; [5])	Tau normalized to GAPDH and control, AVG % (tauP301L; [6])	Tau normalized to GAPDH and control, AVG % (tauP301L; [7])	Tau normalized to GAPDH and control, AVG % (tauP301L; [8])	TauP301L-GFP / LC3 colocalization, AVG of cells per 50 cells [1]	TauP301L-GFP / LC3 colocalization, percentage AVG [1]	p62 self-oligomerization (p62)	other results
O=C(O)CCCc1ccccc1 [4-PBA, 4-phenylbutyric acid]	80.1686%	76.8%	93.9777%	90.7287%	84.0643%	93.7866%	13.6667	27.3333 percentage	–	remaining activity at 10 µM (tauP301L; densitometry, dosage degradation, SH-SY5Y-Tau-TiFC, 10uM, read-out: (Tau normalized to GAPDH) normalized to control, percentage (individual replicates N=1, N=2, N=3)): 87%; TauP301L-GFP / LC3 colocalization, cells counted per 50 cells (individual replicates) ([1]; listed as PBA): 12 and 22 and 7
O=C(CCCc1ccccc1)NCCOCCOCCOCCNCc1ccc(OCc2ccccc2)c(OCc2ccccc2)c1 [PBA-1105]	46.0558%	45%	19.6838%	23.7212%	30.8722%	73.3109%	33	66 percentage	triggered its self-oligomerization	autophagic flux index of Ub-conjugated aggregates (Ub-conjugated aggregates; 1 μM 24 h, MG132 1 μM, HCQ 10 μM, control index 1): 2.2; duration of sustained autophagic flux of Ub-conjugated aggregates (Ub-conjugated aggregates; 1 μM, MG132): at least 48 h; DC50 (tauP301L; SH-SY5Y-tauP301L cells): 1 to 10 nM; Dmax,24 hr of tauP301L degradation (tauP301L; SH-SY5Y-tauP301L cells): 100 nM; Tau normalized to GAPDH and control, AVG % (tauP301L; densitometry, dosage degradation, SH-SY5Y-Tau-TiFC, 2.5uM): 20.4143%; remaining activity at 2.5 µM (tauP301L; densitometry, dosage degradation, SH-SY5Y-Tau-TiFC, 2.5uM, read-out: (Tau normalized to GAPDH) normalized to control, percentage (individual replicates N=1, N=2, N=3)): 19.2%; Tau normalized to GAPDH and control, AVG % (tauP301L; densitometry, dosage degradation, SH-SY5Y-Tau-TiFC, 5uM): 12.549%; TauP301L-GFP / LC3 colocalization, cells counted per 50 cells (individual replicates) [1]: 33 and 41 and 25; AVG (%) Insoluble mTau ([2]; 20 mg/kg): 110.945%; AVG (%) Soluble mTau ([2]; 20 mg/kg): 97.7163%; AVG (%) Insoluble mTau ([2]; 50 mg/kg): 56.7728%; AVG (%) Soluble mTau ([2]; 50 mg/kg): 133.669%; endogenous wild-type murine tau in detergent-soluble or -insoluble fractions ([2]; mouse, in vivo): did not degrade
O[C@H](CNCCOCCOCCOc1ccc(-c2c(-c3ccccc3)nn3c(C(F)(F)F)cc(C(F)(F)F)nc23)cc1)COc1ccc(OCc2ccccc2)c(OCCCc2ccccc2)c1 [PHTPP-1304]	–	–	–	–	–	–	–	–	induced self-oligomerization of p62	–

Reference: article PMC8850458, “The AUTOTAC chemical biology platform for targeted protein degradation via the autophagy-lysosome system” (Nature Communications, 2022)
